Target: T1, rat hepatic microsomal HMG CoA reductase (Rattus norvegicus, UniProt P51639)
T1 construct: rat hepatic microsomal HMG CoA reductase activity in vitro; from tissue; host or cells: rat liver microsomes
T1 sequence (P51639 1-887): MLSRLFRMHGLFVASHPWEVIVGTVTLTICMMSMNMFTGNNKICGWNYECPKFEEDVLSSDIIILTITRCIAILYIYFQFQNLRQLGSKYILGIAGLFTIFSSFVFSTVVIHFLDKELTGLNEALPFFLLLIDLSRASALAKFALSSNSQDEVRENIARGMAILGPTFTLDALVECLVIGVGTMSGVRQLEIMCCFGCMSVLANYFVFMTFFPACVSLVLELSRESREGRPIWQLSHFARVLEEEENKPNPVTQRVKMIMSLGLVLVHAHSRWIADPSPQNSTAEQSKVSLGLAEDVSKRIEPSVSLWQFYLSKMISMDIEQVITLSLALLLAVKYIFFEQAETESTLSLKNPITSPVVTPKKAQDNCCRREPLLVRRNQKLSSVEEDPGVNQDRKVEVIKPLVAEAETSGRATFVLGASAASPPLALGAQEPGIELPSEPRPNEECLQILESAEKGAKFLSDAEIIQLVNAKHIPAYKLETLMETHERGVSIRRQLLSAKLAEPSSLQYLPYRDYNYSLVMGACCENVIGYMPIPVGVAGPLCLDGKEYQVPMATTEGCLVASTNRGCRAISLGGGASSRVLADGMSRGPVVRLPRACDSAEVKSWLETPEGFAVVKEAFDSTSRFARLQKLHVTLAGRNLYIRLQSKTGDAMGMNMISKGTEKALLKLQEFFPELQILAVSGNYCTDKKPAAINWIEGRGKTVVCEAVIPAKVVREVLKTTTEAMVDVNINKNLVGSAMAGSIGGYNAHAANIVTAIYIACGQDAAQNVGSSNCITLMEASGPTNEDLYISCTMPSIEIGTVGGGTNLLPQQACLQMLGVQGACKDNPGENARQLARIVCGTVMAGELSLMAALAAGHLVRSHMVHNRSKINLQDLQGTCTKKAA
Assay: inhibition of rat hepatic microsomal HMG CoA reductase activity in vitro
Type: biochemical
Conditions: for inhibition at 0.25 µg/mL: 0.25 micrograms/ml; for inhibition at 0.74 µg/mL: 0.74 micrograms/ml; for inhibition at 2.22 µg/mL: 2.22 micrograms/ml; for inhibition at 6.67 µg/mL: 6.67 micrograms/ml; for inhibition at 20 µg/mL: 20.0 micrograms/ml; for inhibition at 0.027 µg/mL: 0.027 micrograms/ml; for inhibition at 0.082 µg/mL: 0.082 micrograms/ml; for inhibition at 0.24 µg/mL: 0.24 micrograms/ml; for inhibition at 6.66 µg/mL: 6.66 micrograms/ml
Source text: In the table the concentrations of the test compounds are expressed in micrograms/ml.

## CC(C)c1c(/C=C/C(O)CC(O)CC(=O)O)c(-c2ccccc2)c2c3ccccc3cnn12 (stereo not drawn) [Compound B, sodium (E)-3,5-dihydroxy-7-(3-isopropyl-1-phenylpyrrolo[2,1-a]phthalazin-2-yl)-hept-6-enoate]
  inhibition at 0.25 µg/mL: 38%
  inhibition at 0.74 µg/mL: 56%
  inhibition at 2.22 µg/mL: 74%
  inhibition at 6.67 µg/mL: 90%
  inhibition at 20 µg/mL: 98%

## CC(C)c1c(/C=C/[C@@H](O)C[C@@H](O)CC(=O)O)c(-c2ccc(F)cc2)c2c3ccccc3cnn12 (relative stereo) [Compound DA, sodium erythro-(E)-7-{1-(4-fluorophenyl)-3-isopropylpyrrolo[2,1-a]phthalazin-2-yl}-3,5-dihydroxyhept-6-enoate]
  inhibition at 0.027 µg/mL: 49%
  inhibition at 0.082 µg/mL: 58%
  inhibition at 0.24 µg/mL: 72%
  inhibition at 0.74 µg/mL: 86%
  inhibition at 2.22 µg/mL: 94%
  inhibition at 6.66 µg/mL: 98%

## CC(C)c1c(/C=C/[C@@H](O)C[C@H](O)CC(=O)O)c(-c2ccc(F)cc2)c2c3ccccc3cnn12 (relative stereo) [Compound DB, sodium threo-(E)-7-{1-(4-fluorophenyl)-3-isopropylpyrrolo[2,1-a]-phthalazin-2-yl}-3,5-dihydroxyhept-6-enoate]
  inhibition at 0.082 µg/mL: 34%
  inhibition at 0.24 µg/mL: 45%
  inhibition at 0.74 µg/mL: 52%
  inhibition at 2.22 µg/mL: 67%
  inhibition at 6.66 µg/mL: 85%
0.27 micrograms/ml (so in the source)
  inhibition at 0.27 µg/mL: 29%

## CC(C)c1c(/C=C/C(=O)CC(O)CC(=O)O)c(-c2ccc(F)cc2)c2c3ccccc3cnn12 (stereo not drawn) [Compound G, sodium (E)-7-{1-(4-fluorophenyl)-3-isopropylpyrrolo[2,1-a]phthalazin-2-yl)-3-hydroxy-5-oxohept-6-enoate]
  inhibition at 0.74 µg/mL: 29%
  inhibition at 2.22 µg/mL: 52%
  inhibition at 6.66 µg/mL: 77%
  inhibition at 20 µg/mL: 92%

## CCOC(=O)C[C@H](O)C[C@H](O)/C=C/c1c(-c2ccc(F)cc2)c2c3ccccc3cnn2c1C(C)C (relative stereo) [CA, ethyl erythro-(E)-7-{1-(4-fluorophenyl)-3-isopropylpyrrolo[2,1-a]phthalazin-2-yl)-3,5-dihydroxyhept-6-enoate]
  inhibition at 0.027 µg/mL: 23%
  inhibition at 0.082 µg/mL: 33%
  inhibition at 0.24 µg/mL: 47%
  inhibition at 0.74 µg/mL: 65%
  inhibition at 2.22 µg/mL: 85%
  inhibition at 6.66 µg/mL: 95%

## CC(C)c1c(/C=C/C(O)CC(O)CC(=O)O)c(-c2ccc(F)cc2)c2c3ccccc3cnn12 (stereo not drawn) [Compound D, sodium (E)-7-{1-(4-fluorophenyl)-3-isopropylpyrrolo[2,1-a]-phthalazin-2-yl)-3,5-dihydroxyhept-6-enoate]
  inhibition at 0.027 µg/mL: 47%
  inhibition at 0.082 µg/mL: 50%
  inhibition at 0.25 µg/mL: 61%
  inhibition at 0.74 µg/mL: 66%
  inhibition at 2.22 µg/mL: 76%
  inhibition at 6.67 µg/mL: 90%
